# Measured values taken from US8278348B2, “Chondropsin-class antitumor V-atpase inhibitor compounds, compositions and methods of use thereof” (priority 2002, dated 2012).
# Key:
# Experiment in all cases: Two day XTT cytotoxicity assay
# Assay type in all cases: cell-based
# [1] = tested on: IC-2 V814; conditions: Mus musculus, Murine mast cell
# From the text: (§1) This example describes the cytoxicity of poecillastrin A (1), isolated in Example 1. The cytotoxicity assay, details of which have been described previously (Bokesch et al., J. Nat. Prod. 1999, 62, 633-635), utilized melanoma (LOX), breast […], ovarian (OVCAR-3), and non-small cell lung (SNB-19) human tumor cell lines and IC-2^WT and IC-2^V814 murine mast cell lines (Hashimoto et al., Am. J. Pathol. 1996, 148, 189-200).
# (§2) The in vitro 10 cell-line bioassay was a two day bioassay. Cells were grown in RPMI-1640 (Rosweli Park Memorial Institute) without L-glutamine, supplemented with 10% fetal bovine serum, 5.0 mL of a 200 mM glutamine stock, and 0.5 mL of gentamicin and plated out in T-162 cm^2 flasks. Once the cells were confluent, they were harvested and plated in 96-well microtiter flat-bottom plates at a seeding density of 50-10,000 cells per well, to yield optical density readings in the range of 1-2.0, and incubated for 1 h in a 37° C., 5% CO2 incubator. After the 1 h incubation, the cells were then introduced to the sample of poecillastrin A, via a Beckman Biomek Workstation-1000. The Biomek-1000 performed seven serial dilutions in a 96-well round-bottom plate and then transferred aliquots of 100 μL to the assay plate. The plate was then returned to the incubator for […]. After the two day incubation, the cells were exposed to tetrazolium salt, 2,3-bis[2-methoxy-4-nitro-5-sulfophenyl]-2H-tetrazolium-5-carboxanilide (XTT), for a 4 h incubation in a 37° C. incubator, where viable cells reduced the tetrazolium salt to a colored formazan product. Once the incubation was complete, the plates were read in a dual wavelength mode at 450 nm, with a 650 nm reference, using a SpectraMAX 250 (Molecular Devices) plate reader. Resulting data for each cell line are found in Table 3.
# [2] = tested on: OVCAR-3; conditions: Homo sapiens, Ovarian
# From the text: as §1, §2
# [3] = tested on: SNB-19; conditions: Homo sapiens, Non-small cell lung
# From the text: as §1, §2
# [4] = tested on: A549; conditions: Homo sapiens, Breast
# From the text: as §1, §2
# [5] = tested on: LOX; conditions: Homo sapiens, Melanoma
# From the text: as §1, §2
# [6] = tested on: IC-2 WT; conditions: Mus musculus, Murine mast cell
# From the text: as §1, §2
structure (smiles),measurement,setting,value
"COC1/C=C/C=C/CC/C=C/C=C/C(=O)NC(C(O)C(=O)O)C(=O)OC(C(C)C(O)C(NC(=O)C(C)C(O)CCC(C)C(O)/C(C)=C/C(C)(C)C(O)C(CC(C)C)NC(=O)/C=C/C(C)(C)C(=O)C(C)C(O)C(C)C)C(C)O)C/C=C(\C)C(O)C(C)/C=C(\C)C(O)C(C)C(O)CC2CC(C)CC1O2 (stereo not drawn) [Poecillastrin A, poecillastrin A]",IC50,[1],546 nM
same,IC50,[2],28 nM
same,IC50,[3],> 10000 nM
same,IC50,[4],> 10000 nM
same,IC50,[5],14 nM
same,IC50,[6],206 nM
